Common to all, as to assay type: in vivo
Assay [1] has as its target T1, Aβ42 (Homo sapiens, UniProt P05067).
T1 construct: from tissue; host or cells: brain (70% formic acid extract) and plasma of PS/APP transgenic mice
Description: Plasma Aβ42 level over time after a single injection of CG in PS/APP mice (ELISA). The settings on record: single injection 20 mg/kg. The source says:
In this Example, as in Example 1, transgenic mice that develop AD-related amyloidosis, (i.e., PS/APP mice; See, L. Holcomb et al., 1998, Nature Med., 4(1):97-100) were used to assess the Aβ-binding compound chrysamine G (CG) in the peripheral sequestration of Aβ according to this invention, and to determine how the peripheral sequestration of Aβ by this compound affected brain Aβ levels. CG is known to bind Aβ strongly, and is less brain permeable than GM1.
PS/APP mice at 10 weeks of age were injected once either with CG (number of mice=3, dosage: 20 mg/kg) or vehicle (phosphate buffered saline, number of mice=2) into the blood stream. […] […] The levels of Aβ peptides (Aβ40 or Aβ42) in the plasma were assessed by ELISA immunoassay. The levels of Aβ peptides in the periphery, i.e., plasma, of CG treated mice were compared with plasma Aβ levels in pretreatment mice at various time points.
Changes in plasma load of Aβ42 after injection with CG were compared to the plasma Aβ level at pretreatment time points. As can be observed, there was a significant increase in plasma Aβ levels after injection of CG.
For orientation: In an ELISA, binding on a coated surface is turned into a signal by an enzyme label.

Assay [2] addresses T1, Aβ42. Description: Brain Aβ42 (70% formic acid extract, ELISA) after one week of daily CG injection in PS/APP mice. The settings on record: 20 mg/kg ip every day for one week, sacrificed at 12 weeks, vehicle 1209 ± 292, not statistically significant. As to the method: (§1) Following a oneweek wash out period, the effect in brain AD level after continuous injection was examined. PS/APP mice were injected every day for one week into the periphery, with either CG (number of mice=3) (20 mg/kg, ip,) or vehicle (phosphate buffered saline) (number of mice=2), at 11 weeks of age, an age when amyloid pathology in the brain is not visible. The mice were sacrificed at 12 weeks of age, an age when amyloid deposition has been initiated and measurable levels of Aβ are present in the vehicle treated controls.
(§2) The levels of Aβ in the peripheral blood were tested at the end of the administration period. The levels of Aβ peptides (e.g., Aβ40 or Aβ42) in the brain and plasma were assessed by ELISA assay. All of the Aβ in the brain (including Aβ in plaques) was extracted in 70% formic acid (FA). The levels of Aβ peptides in CG treated mice were compared with those of vehicle treated controls. […] This correlates with a statistically significant increase in peripheral Aβ40 and Aβ42 at the same time point.

Assay [3] concerns the target T2, Aβ40 (Homo sapiens, UniProt P05067).
T2 construct: from tissue; host or cells: brain (70% formic acid extract) and plasma of PS/APP transgenic mice
In words: Brain Aβ40 (70% formic acid extract, ELISA) after one week of daily CG injection in PS/APP mice. The settings on record: 20 mg/kg ip every day for one week, sacrificed at 12 weeks, vehicle 926 ± 26. As to the method:
as §1, §2

The target of assay [4] is T1, Aβ42. In words: Plasma Aβ42 level after one week of daily CG injection in PS/APP mice (ELISA). The settings on record: 20 mg/kg ip every day for one week from 11 weeks of age, vehicle = 100 ± 9. As to the method: as §1, §2
The target in assay [5] is T1, Aβ42. Description: Brain Abeta42 load (70% formic acid extract, ELISA) in PS/APP mice after peripheral GM1 or gelsolin. The settings on record: 1 week wash-out; for brain Abeta load, Abeta42: ip every two days for two weeks from 9 weeks of age, sacrificed at 12 weeks, FA-soluble brain fraction; for brain Abeta42 load compared with controls (vehicle): ip every two days for two weeks, % of vehicle. On the procedure:
(§3) Transgenic mice that develop AD-related amyloidosis, (i.e., PS/APP mice; See, L. Holcomb et al., 1998, Nature Med., 4(1):97-100) were used for the studies described in this Example to assess how peripheral sequestration of Aβ affected brain Aβ levels. […] In addition, a second compound, gelsolin, which is too large to cross the blood/brain barrier (BBB), and is completely unrelated to GM1, but which is also known to bind Aβ with great avidity, was administered peripherally to confirm the universality of the mechanism.
(§4) PS/APP mice were injected every two days for two weeks either with GM1 (number of mice=6) (15 mg/kg, ip,), with gelsolin (number of mice=3) (60 μg/kg, ip), or with vehicle, (phosphate buffered saline), (number=7), into the periphery at 9 weeks of age, an age when amyloid pathology in the brain is not visible. The mice were left for 1 week without injections (the “wash-out” period) and were then sacrificed at 12 weeks of age, an age when amyloid deposition has been initiated and measurable levels of Aβ are present in the vehicle treated controls.
(§5) The levels of Aβ in the peripheral blood were tested at three time points during the drug administration period (i.e., after 1 week of injections; after two weeks of injections; and after the washout period). Data for the third time point only are shown. The levels of Aβ peptides (Aβ40 or Aβ42) in the brain and plasma were assessed by ELISA assay. All of the Aβ in the brain (including Aβ in plaques) was extracted in 70% formic acid (FA). The levels of Aβ peptides in GM1 or gelsolin treated mice were compared with those of vehicle treated controls.
(§6) This correlates with a statistically significant increase in peripheral Aβ40 and Aβ42 at the same time point. For gelsolin, there was also a significant decrease in Aβ42, which correlated with a statistically significant increase in peripheral Aβ, thus confirming that the general principle of Aβ sequestration in the periphery being linked to reduction of Aβ in the CNS holds true for very different types of compounds that have the unifying property of being able to bind Aβ in the blood.

A further assay deals with Aβ. In words: GM1 introduced directly into the brain of transgenic mice, Aβ levels. The source says:
Neither GM1 nor gelsolin is known to cross into the brain from the periphery to any degree. […] This is the first time that such a result has been shown for a peripherally administered compound that is not an antibody. As such, the invention affords a significant advantage to the art by describing and promoting Aβ-binding compounds that require neither penetration of the brain nor the evocation of an immune response, which are potentially harmful and ineffective ways to modulate the risk of AD in human patients.

In assay [6] the target is T1, Aβ42. Description: Plasma Abeta42 load (ELISA) in PS/APP mice after peripheral GM1 or gelsolin. The settings on record: ip every two days for two weeks, third time point (after wash-out), vehicle = 100 ± 7. As to the method:
as §3, §4
(§7) The levels of Aβ in the peripheral blood were tested at three time points during the drug administration period (i.e., after 1 week of injections; after two weeks of injections; and after the washout period). […] The levels of Aβ peptides (Aβ40 or Aβ42) in the brain and plasma were assessed by ELISA assay. […]

The target of assay [7] is T2, Aβ40. Description: Plasma Abeta40 load (ELISA) in PS/APP mice after peripheral GM1 or gelsolin. The settings on record: ip every two days for two weeks, third time point (after wash-out), vehicle = 100 ± 21. As to the method:
as §3, §4, §7

For assay [8], the target named is T2, Aβ40. In words: Brain Abeta40 load (70% formic acid extract, ELISA) in PS/APP mice after peripheral GM1 or gelsolin. The settings on record: 1 week wash-out; for brain Abeta load, Abeta40: ip every two days for two weeks from 9 weeks of age, sacrificed at 12 weeks, FA-soluble brain fraction; for brain Abeta40 load compared with controls (vehicle): ip every two days for two weeks, % of vehicle. On the procedure: as §3, §4, §5, §6

T2 sequence (P05067 672-711 limits assumed): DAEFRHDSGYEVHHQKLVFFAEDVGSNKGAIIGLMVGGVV
T1 sequence (P05067 672-713 limits assumed): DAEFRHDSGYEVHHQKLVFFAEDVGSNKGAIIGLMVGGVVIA
Aβ, sequence (P05067 672-711 limits assumed): as the sequence (P05067 672-711 limits assumed) above

Regarding `O=C([O-])c1cc(N=Nc2ccc(-c3ccc(N=Nc4ccc(O)c(C(=O)[O-])c4)cc3)cc2)ccc1O.[Na+].[Na+]` [CG, 5,5′-[(1,1′ biphenyl)-4,4′-diylbis(azo)]bis [2-hydroxybenzoic acid]disodium salt], the “plasma Aβ42 level” value at Aβ42 [1] (2.5 hours after injection) is recorded as 110 ± 8 (p = 0.232) % of pre-treatment time point; at Aβ42 [1] (5 hours after injection), 125 ± 8 (p = 0.049) % of pre-treatment time point; on Aβ42 [1] (7.5 hours after injection), 125 ± 7 (p = 0.034) % of pre-treatment time point; at Aβ42 [1] (24 hours after injection), 112 ± 13 (p = 0.341) % of pre-treatment time point; at Aβ42 [1] (48 hours after injection) it was 111 ± 10 (p = 0.256) % of pre-treatment time point; on Aβ42 [4], 331 ± 10 % of control. Moreover, the “brain Aβ42” value at Aβ42 [2] is 540 ± 271 fmol/mL. On Aβ40 [3], the “brain Aβ40” value turned out to be 541 ± 50 fmol/mL.

Consider GM1, for which, on Aβ42 [5], the “brain Abeta load, Abeta42” value is 2990 ± 410 fmole/mg protein and the “brain Abeta42 load compared with controls (vehicle)” value is given as 73%. The “change in Aβ levels” value in the assay on Aβ is “no change in Aβ levels was observed”. The “plasma Abeta load, Abeta42” value at Aβ42 [6] stood at 124 ± 11 fmole/ml plasma. Further, the “plasma Abeta load, Abeta40” value on Aβ40 [7] turned out to be 177 ± 29 fmole/ml plasma. Further, on Aβ40 [8], the “brain Abeta load, Abeta40” value came out at 2147 ± 226 fmole/mg protein and the “brain Abeta40 load compared with controls (vehicle)” value was 59%.

With gelsolin, at Aβ42 [5], the “brain Abeta load, Abeta42” value is on record as 2473 ± 167 fmole/mg protein and the “brain Abeta42 load compared with controls (vehicle)” value was found to be 60%. Also, the “plasma Abeta load, Abeta42” value on Aβ42 [6] is on record as 153 ± 35 fmole/ml plasma. Moreover, the “plasma Abeta load, Abeta40” value at Aβ40 [7] worked out at 218 ± 87 fmole/ml plasma. For the same molecule, on Aβ40 [8], the “brain Abeta load, Abeta40” value was determined as 3473 ± 673 fmole/mg protein and the “brain Abeta40 load compared with controls (vehicle)” value is recorded as 96%.

For the origin of these results see patent US20050227941A1, “Sequestration of ass in the periphery in the absence of immunomodulating agent as a therapeutic approach for the treatment or prevention of beta-amyloid related diseases” (priority 2001, published 2005).
